Laboratory results taken from US20140303092A1 (CHIMERIX, INC., priority 2011, published 2014).

Assay: Study HDP-CDV-201: safety and tolerability (adverse events, laboratory abnormalities, discontinuations)
Format: in vivo, human (adult allogeneic HSCT recipients)
Details: Cohort 4A
Experimental: Clinical Studies of HDP-CDV were performed and described in detail in the following Examples. For example, HDP-CDV-201 is a placebo-controlled, dose-escalating trial in HSCT CMV (R+) recipients, evaluating the ability of HDP-CDV to prevent or control CMV infection was carried out. Five cohorts were established in which participants or subjects received either placebo or the HDP-CDV orally, in doses ranging from 40 mg weekly (QW) to 200 mg twice weekly (BIW). Subjects who were post-HSCT were enrolled at the time of engraftment and randomized to HDP-CDV or placebo (3 to 1 ratio) and received blinded therapy until approximately 100 day post-transplantation. HDP-CDV doses were 40 mg QW, 100 mg QW, 200 mg QW, 200 mg BIW and 100 mg BIW. Escalation to the next dose was decided by the data monitoring committee after review of the safety data from the previous Cohort. Subjects who developed CMV disease or CMV infection requiring pre-emptive therapy with local standard of care were discontinued from blinded therapy and followed for 4 weeks. Subjects who completed treatment with blinded therapy were followed for 8 weeks post-therapy.
Data from Study HDP-CDV-201 also provided characterization of the safety and tolerability profile of HDP-CDV when administered for the prevention or control of CMV infection in high risk (R^+) post-HSCT adult subjects.
The Safety population (SAFETY) included all randomized subjects who took at least one dose of study treatment. This population was used to summarize safety outcomes based on the treatment actually received, in cases where a subject was treated contrary to the randomization schedule.
The safety and tolerability profile of HDP-CDV, including subject demographics and Baseline characteristics; the AE profile; and laboratory abnormalities of interest were analyzed in the cohorts followed in this investigation.
Subjects completing the treatment period received a full course of study medication; those completing the entire study attended visits through 8 weeks of follow up. Subjects who discontinued treatment may have done so for protocol specified reasons (e.g. development of clinically significant CMV infection requiring preemptive treatment with excluded anti-CMV medications) or for other reasons (e.g., withdrawal, adverse events, loss to follow-up). The disposition of subjects in Study HDP-CDV-201 during the double-blind, placebo-controlled treatment period (through Week 11) is listed by dosing Cohort in TABLE 23.
Adverse events were examined by severity to ensure that all safety signals were identified in this study population. Because of the frequency of events in HSCT recipients, particular attention was given to evaluation of Grade 3 […], 4 (severe), and 5 (fatal) adverse events.
Only those preferred terms for which at least one Grade 3 or higher event was experienced in any treatment group are listed. Cytomegalovirus-related AEs are excluded from this analysis.
HDP-CDV is a lipid conjugate of CDV. Because CDV is known to have adverse effects on renal function and bone marrow, decreased GFR and persistent neutropenia were identified as AEs of special interest. Key renal and hematological (TABLE 30) laboratory parameters were measured and listed below by Study HDP-CDV-201 treatment groups. TABLE 30 includes abnormal levels of serum creatinine, neutrophils, platelets, WBCs, and hemoglobin and includes data at Screening and during the treatment period.
A common metric for unit based dosing of medications is by weight (mg/kg). When the distribution of weights was examined for all subjects participating in the study, the median was 78 kg and the lower 25th percentile weight was approximately 65 kg, which translates to a cut-off of ˜3 mg/kg for a 200 mg total weekly dose. Based upon this approach, a cut-off of 3 mg/kg was used to assess the frequency of diarrhea and associated GI AEs reported for the subjects in Cohorts 3 or 4a (TABLE 40).

## CCCCCCCCCCCCCCCCOCCCOP(=O)(O)COC(CO)Cn1ccc(N)nc1=O (stereo not drawn) [HDP-CDV]
100 mg BIW
  Intensity of Gastrointestinal AEs, Grade 1, subjects: 12 (24.0%)
  Intensity of Gastrointestinal AEs, Grade 2, subjects: 17 (34.0%)
  Intensity of Gastrointestinal AEs, Grade 3, subjects: 10 (20.0%)
  Intensity of Gastrointestinal AEs, Grade 4, subjects: 1 (2.0%)
  Intensity of Gastrointestinal AEs, Grade 5, subjects: 0
  Serum ALT level, Median fold increase from Baseline at Follow-up Week 1: 1.52 fold
  Serum ALT level, Median fold increase from Baseline at Follow-up Week 4: 1.11 fold
  Serum ALT level, Peak Median fold increase from Baseline: 2.86 fold
  Subjects completed study: 25 (50.0%) n (%)
  TEAE Abdominal pain Grade 2, subjects: 1 (2.0%)
  TEAE Abdominal pain Grade 3, subjects: 1 (2.0%)
  TEAE Abdominal pain Grade 4, subjects: 0
  TEAE Abdominal pain Grade 5, subjects: 0
  TEAE Abdominal pain Overall Frequency, subjects: 13 (26.0%)
  TEAE Diarrhea Grade 2, subjects: 6 (12.0%)
  TEAE Diarrhea Grade 3, subjects: 9 (18.0%)
  TEAE Diarrhea Grade 4, subjects: 0
  TEAE Diarrhea Grade 5, subjects: 0
  TEAE Diarrhea Overall Frequency, subjects: 26 (52.0%)
  TEAE Hypokalaemia Grade 2, subjects: 2 (4.0%)
  TEAE Hypokalaemia Grade 3, subjects: 2 (4.0%)
  TEAE Hypokalaemia Grade 4, subjects: 0
  TEAE Hypokalaemia Grade 5, subjects: 0
  TEAE Hypokalaemia, subjects: 8 (16.0%)
  TEAE Nausea Grade 2, subjects: 9 (18.0%)
  TEAE Nausea Grade 3, subjects: 2 (4.0%)
  TEAE Nausea Grade 4, subjects: 0
  TEAE Nausea Grade 5, subjects: 0
  TEAE Nausea Overall Frequency, subjects: 17 (34.0%)
  TEAE Vomiting Grade 2, subjects: 8 (16.0%)
  TEAE Vomiting Grade 3, subjects: 2 (4.0%)
  TEAE Vomiting Grade 4, subjects: 0
  TEAE Vomiting Grade 5, subjects: 0
  TEAE Vomiting Overall Frequency, subjects: 22 (44.0%)
  Total Bilirubin (Screening) >1-[…] ULN, subjects: 3 (6.5%)
  Total Bilirubin (Screening) >1.5-3 × ULN, subjects: 2 (4.3%)
  Total Bilirubin (Screening) >3-10 × ULN, subjects: 0
  Total Bilirubin (Screening) >10 × ULN, subjects: 0
  Total Bilirubin (any time during therapy) >1-[…] ULN, subjects: 5 (10.0%)
  Total Bilirubin (any time during therapy) >1.5-3 × ULN, subjects: 3 (6.0%)
  Total Bilirubin (any time during therapy) >3-10 × ULN, subjects: 1 (2.0%)
  Total Bilirubin (any time during therapy) >10 × ULN, subjects: 0
  excess of subjects with severe diarrhea as compared to placebo: 13%
  incidence of diarrhea: 52%
100 mg BIW >3 mg/k
  TEAE Abdominal pain Grade 2, subjects: 0
  TEAE Abdominal pain Grade 3, subjects: 0
  TEAE Abdominal pain Grade 4, subjects: 0
  TEAE Abdominal pain Grade 5, subjects: 0
  TEAE Abdominal pain Overall Frequency, subjects: 4 (40%)
  TEAE Diarrhea Grade 2, subjects: 3 (30%)
  TEAE Diarrhea Grade 3, subjects: 3 (30%)
  TEAE Diarrhea Grade 4, subjects: 0
  TEAE Diarrhea Grade 5, subjects: 0
  TEAE Diarrhea Overall Frequency, subjects: 6 (60%)
  TEAE Hypokalaemia Grade 2, subjects: 1 (10%)
  TEAE Hypokalaemia Grade 3, subjects: 2 (20.0%)
  TEAE Hypokalaemia Grade 4, subjects: 0
  TEAE Hypokalaemia Grade 5, subjects: 0
  TEAE Hypokalaemia, subjects: 3 (30%)
  TEAE Nausea Grade 2, subjects: 3 (30%)
  TEAE Nausea Grade 3, subjects: 1 (10%)
  TEAE Nausea Grade 4, subjects: 0
  TEAE Nausea Grade 5, subjects: 0
  TEAE Nausea Overall Frequency, subjects: 4 (40%)
  TEAE Vomiting Grade 2, subjects: 4 (40.0%)
  TEAE Vomiting Grade 3, subjects: 1 (10.0%)
  TEAE Vomiting Grade 4, subjects: 0
  TEAE Vomiting Grade 5, subjects: 0
  TEAE Vomiting Overall Frequency, subjects: 6 (60%)
100 mg BIW ≦3 mg/kg
  TEAE Abdominal pain Grade 2, subjects: 1 (2.5%)
  TEAE Abdominal pain Grade 3, subjects: 1 (2.5%)
  TEAE Abdominal pain Grade 4, subjects: 0
  TEAE Abdominal pain Grade 5, subjects: 0
  TEAE Abdominal pain Overall Frequency, subjects: 9 (22.5%)
  TEAE Diarrhea Grade 2, subjects: 3 (7.5%)
  TEAE Diarrhea Grade 3, subjects: 6 (15%)
  TEAE Diarrhea Grade 4, subjects: 0
  TEAE Diarrhea Grade 5, subjects: 0
  TEAE Diarrhea Overall Frequency, subjects: 20 (50%)^
  TEAE Hypokalaemia Grade 2, subjects: 1 (2.5%)
  TEAE Hypokalaemia Grade 3, subjects: 0
  TEAE Hypokalaemia Grade 4, subjects: 0
  TEAE Hypokalaemia Grade 5, subjects: 0
  TEAE Hypokalaemia, subjects: 5 (12.5%)
  TEAE Nausea Grade 2, subjects: 6 (15%)
  TEAE Nausea Grade 3, subjects: 1 (2.5%)
  TEAE Nausea Grade 4, subjects: 0
  TEAE Nausea Grade 5, subjects: 0
  TEAE Nausea Overall Frequency, subjects: 13 (32.5%)
  TEAE Vomiting Grade 2, subjects: 4 (10%)
  TEAE Vomiting Grade 3, subjects: 1 (2.5%)
  TEAE Vomiting Grade 4, subjects: 0
  TEAE Vomiting Grade 5, subjects: 0
  TEAE Vomiting Overall Frequency, subjects: 16 (40%)^
100 mg BIW, N = 50
  Abdominal pain leading to study drug withdrawal: 1 (2.0%)
  All AEs leading to withdrawal: 18 (36.0%)
  Diarrhoea leading to study drug withdrawal: 2 (4.0%)
  Dyspepsia leading to study drug withdrawal: 0%
  Nausea leading to study drug withdrawal: 1 (2.0%)
  TEAE ALT increased: 9 (18.0%) n (%)
  TEAE AST increased: 5 (10.0%) n (%)
  TEAE Abdominal pain: 13 (26.0%) n (%)
  TEAE Abdominal pain, Upper: 2 (4.0%) n (%)
  TEAE Acute GVHD: 32 (64.0%) n (%)
  TEAE Acute Myeloid Leukemia recurrent: 3 (6.0%) n (%)
  TEAE Acute Renal Failure: 1 (2.0%) n (%)
  TEAE Anxiety: 3 (6.0%) n (%)
  TEAE Arthralgias: 3 (6.0%) n (%)
  TEAE Back Pain: 4 (8.0%) n (%)
  TEAE Blood lactate dehydrogenase increased: 4 (8.0%) n (%)
  TEAE Creatinine increased: 7 (14.0%) n (%)
